Laboratory results from patent US11339161B2, “Triazolo pyridines as modulators of gamma-secretase” (Boehringer Ingelheim International GmbH, priority 2017, dated 2022).
Like-named read-outs stand apart in the source and are kept apart here.

Tests used:
[1] = tested on: 15 kinases (ABL1, AURKA, CDK5/p35, CSF1R, FGFR1, FGFR2, FLT4, KDR, LYN B, MAP4K2, MAP4K4, PDGFRA, PTK2, RET, RPS6KB1); test: Z'-LYTE SelectScreen biochemical kinase panel: count of kinases inhibited over all 15 kinases tested; conditions: 10 μmolar compound concentration; [ATP] Km app; out of 15 kinases tested
KDR (VEGFR2) = KDR (VEGFR2) (Homo sapiens, UniProt P35968); test: Z'-LYTE SelectScreen biochemical kinase assay KDR (VEGFR2)
Sequence of KDR (VEGFR2) (P35968 20-1356): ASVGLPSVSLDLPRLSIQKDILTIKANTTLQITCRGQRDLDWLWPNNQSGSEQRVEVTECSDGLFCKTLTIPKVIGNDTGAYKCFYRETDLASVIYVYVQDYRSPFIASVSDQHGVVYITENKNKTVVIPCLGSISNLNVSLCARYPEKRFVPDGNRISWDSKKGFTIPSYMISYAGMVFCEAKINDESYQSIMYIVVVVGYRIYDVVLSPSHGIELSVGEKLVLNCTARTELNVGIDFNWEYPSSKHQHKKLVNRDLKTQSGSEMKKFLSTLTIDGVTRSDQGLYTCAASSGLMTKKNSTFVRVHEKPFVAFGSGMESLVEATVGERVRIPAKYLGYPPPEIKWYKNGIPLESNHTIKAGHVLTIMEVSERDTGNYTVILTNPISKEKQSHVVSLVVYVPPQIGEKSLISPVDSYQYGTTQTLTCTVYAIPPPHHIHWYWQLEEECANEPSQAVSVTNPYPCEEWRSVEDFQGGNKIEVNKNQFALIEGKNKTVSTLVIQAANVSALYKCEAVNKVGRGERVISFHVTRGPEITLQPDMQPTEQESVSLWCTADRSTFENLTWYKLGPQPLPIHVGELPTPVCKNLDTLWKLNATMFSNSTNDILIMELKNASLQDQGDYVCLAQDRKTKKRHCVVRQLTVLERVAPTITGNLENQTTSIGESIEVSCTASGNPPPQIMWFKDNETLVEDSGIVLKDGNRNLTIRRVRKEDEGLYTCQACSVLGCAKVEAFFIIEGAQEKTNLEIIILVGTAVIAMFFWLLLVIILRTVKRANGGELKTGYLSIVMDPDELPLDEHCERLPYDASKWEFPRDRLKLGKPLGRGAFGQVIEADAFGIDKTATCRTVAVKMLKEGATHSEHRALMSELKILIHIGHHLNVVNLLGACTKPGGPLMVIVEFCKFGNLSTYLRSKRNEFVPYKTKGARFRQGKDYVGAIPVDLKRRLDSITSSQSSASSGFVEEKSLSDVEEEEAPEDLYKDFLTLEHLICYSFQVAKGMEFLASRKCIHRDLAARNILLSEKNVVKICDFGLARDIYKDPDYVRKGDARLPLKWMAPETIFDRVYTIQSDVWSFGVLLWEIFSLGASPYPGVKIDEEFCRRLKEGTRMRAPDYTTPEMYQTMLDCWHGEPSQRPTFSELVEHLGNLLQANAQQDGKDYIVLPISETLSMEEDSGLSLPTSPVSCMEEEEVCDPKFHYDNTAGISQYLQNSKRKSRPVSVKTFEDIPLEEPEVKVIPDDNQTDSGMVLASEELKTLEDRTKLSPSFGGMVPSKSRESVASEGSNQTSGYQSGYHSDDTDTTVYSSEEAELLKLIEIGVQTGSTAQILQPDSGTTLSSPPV
Description: Thermo Fisher Scientific SelectScreen™ Biochemical Kinase Profiling Service Z′-LYTE™ Screening Protocol and Assay Conditions Assay Theory
The […] biochemical assay employs a fluorescence-based, coupled-enzyme format and is based on the differential sensitivity of phosphorylated and non-phosphorylated peptides to proteolytic cleavage. The peptide substrate is labeled with two fluorophores—one at each end—that make up a FRET pair. In the primary reaction, the kinase transfers the gamma-phosphate of ATP to a single tyrosine, serine or threonine residue in a synthetic FRET-peptide. In the secondary reaction, a site-specific protease recognizes and cleaves non-phosphorylated FRET-peptides. Phosphorylation of FRET-peptides suppresses cleavage by the Development Reagent. Cleavage disrupts FRET between the donor (i.e., coumarin) and acceptor (i.e., fluorescein) fluorophores on the FRET-peptide, whereas uncleaved, phosphorylated FRET-peptides maintain FRET. A ratiometric method, which calculates the ratio (Emission Ratio=Coumarin emission (445 nm)/Fluorescein emission (520 nm)) of donor emission to acceptor emission after excitation of the donor fluorophore at 400 nm, is used to quantitate reaction progress, as shown in the equation below. A significant benefit of this ratiometric method for quantitating reaction progress is the elimination of well-to-well variations in FRET-peptide concentration and signal intensities. As a result, the assay yields very high Z′-factor values (>0.7) at a low percent phosphorylation. Both cleaved and uncleaved FRET-peptides contribute to the fluorescence signals and therefore to the Emission Ratio. The extent of phosphorylation of the FRET-peptide can be calculated from the Emission Ratio. The Emission Ratio will remain low if the FRET-peptide is phosphorylated (i.e., no kinase inhibition) and will be high if the FRET-peptide is non-phosphorylated (i.e., kinase inhibition).
The Test Compounds are screened in 1% DMSO (final) in the well. For 10 point titrations, 3-fold serial dilutions are conducted from the starting concentration of the customer's choosing.
All Peptide/Kinase Mixtures are diluted to a 2× working concentration in the appropriate Kinase Buffer (see section Kinase Specific Assay Conditions for a complete description).
All ATP Solutions are diluted to a 4× working concentration in Kinase Buffer (50 mM HEPES pH 7.5, 0.01% BRIJ-35, 10 mM MgCl2, 1 mM EGTA). ATP Km apparent is previously determined using a Z″-LYTE assay.
The Development Reagent is diluted in Development Buffer (see section Kinase-Specific Assay Conditions—Direct and Cascade for a complete description).
Bar-coded Corning, low volume NBS, black 384-well plate (Corning Cat. #4514) • 1. 100 nL—100× Test Compound in 100% DMSO • 2. 2.4 μL—Kinase buffer • 3. 5 μL—2× Peptide/Kinase Mixture • 4. 2.5 μL—4×ATP Solution • 5. 30—second plate shake • 6. 60—minute Kinase Reaction incubation at room temperature • 7. 5 μL—Development Reagent Solution • 8. 30—second plate shake • 9. 60—minute Development Reaction incubation at room temperature • 10. Read on fluorescence plate reader and analyze the data Z′-LYTE Assay Controls
SelectScreen Kinase Profiling Service uses XLfit from IDBS. The dose response curve is curve fit to model number 205 (sigmoidal dose-response model).
The 2×KDR (VEGFR2)/Tyr 01 mixture is prepared in 50 mM HEPES pH 7.5, 0.01% BRIJ-35, 10 mM MgCl2, 1 mM EGTA. The final 10 μL Kinase Reaction consists of 1-30 ng KDR (VEGFR2) and 2 μM Tyr 01 in 50 mM HEPES pH 7.5, 0.01% BRIJ-35, 10 mM MgCl2, 1 mM EGTA. After the 1 hour Kinase Reaction incubation, 5 μL of a 1:256 dilution of Development Reagent B is added.

panel of 15 kinases = test: Z'-LYTE SelectScreen kinase panel: number of kinases with <40% inhibition; assay type: biochemical; conditions: of 15 kinases tested; 10 μmolar compound; ATP at Km app
[2] = 10 μmolar compound concentration, ATP at Km app, read-out: KDR (VEGFR2) inhibition
[3] = read-out: % Inhibition mean KDR (VEGFR2)

Structure (SMILES)	No. of kinases with >80% inhibition [1]	inhibition at 10 µM (KDR (VEGFR2); [2]) [%]	inhibition at 10 µM (KDR (VEGFR2); read-out: % Inhibition mean) [%]	No. of kinases with <40% inhibition (panel of 15 kinases)	inhibition at 10 µM (KDR (VEGFR2); [3]) [%]
CC1(C)NC(=O)c2ccc(Nc3nc4c(-c5cccc(F)c5)cccn4n3)cc21 [Cpd. 302 in WO09155551, reference compound]	15/15	> 80	101		
CC1(C)C(=O)Nc2ccc(Nc3nc4c(-c5cccc(F)c5)cccn4n3)cc21 [Cpd. 263 in WO09155551, reference compound]	15/15	> 80	99		
Fc1cccc(-c2cccn3nc(Nc4ccc5[nH]cnc5c4)nc23)c1 [Cpd. 293 in WO09155551, reference compound]	15/15	> 80	98		
CCn1ncc2c1CCC(Nc1nc3c(-c4cccc(Cl)c4)cccn3n1)C2 (stereo not drawn) [Example 59, [8-(3-Chloro-phenyl)-[1,2,4]triazolo[1,5-a]pyridine-2-yl]-(1-ethyl-4,5,6,7-tetrahydro-1H-indazol-5-yl)-amine]		< 40		13/15	-8
CCn1ncc2c1CCC(Nc1nc3c(-c4ccc(C)nc4)cccn3n1)C2 (stereo not drawn) [Example 67, (1-Ethyl-4,5,6,7-tetrahydro-1H-indazol-5-yl)-[8-(6-methyl-pyridin-3-yl)-[1,2,4]triazolo[1,5-a]pyridine-2-yl]-amine]		< 40		14/15	15

Next, values leading:

No. of kinases with >80% inhibition [1]	inhibition at 10 µM (KDR (VEGFR2); [2]) [%]	inhibition at 10 µM (KDR (VEGFR2); read-out: % Inhibition mean) [%]	No. of kinases with <40% inhibition (panel of 15 kinases)	inhibition at 10 µM (KDR (VEGFR2); [3]) [%]	Structure (SMILES)
	< 40		11/15	18	CCn1ncc2c1CCC(Nc1nc3c(-c4cnccc4OC)cccn3n1)C2 (stereo not drawn) [Example 68, (1-Ethyl-4,5,6,7-tetrahydro-1H-indazol-5-yl)-[8-(4-methoxy-pyridin-3-yl)-[1,2,4]triazolo[1,5-a]pyridine-2-yl]-amine]
	< 40		15/15	-15	CCn1ncc2c1CC[C@H](Nc1nc3c(-c4ccc(F)c(Cl)c4)cccn3n1)C2 [Example S-61, (S)-[8-(3-Chloro-4-fluoro-phenyl)-[1,2,4]triazolo[1,5-a]pyridine-2-yl]-(1-ethyl-4,5,6,7-tetrahydro-1H-indazol-5-yl)-amine]
	< 40		8/15	8	CCn1ncc2c1CCC(Nc1nc3c(-c4cncc(Cl)c4)cccn3n1)C2 (stereo not drawn) [Example 73, [8-(5-Chloro-pyridin-3-yl)-[1,2,4]triazolo[1,5-a]pyridine-2-yl]-(1-ethyl-4,5,6,7-tetrahydro-1H-indazol-5-yl)-amine]
	< 40		11/15	12	CCn1ncc2c1CCC(Nc1nc3c(-c4cncc(OC)c4)cccn3n1)C2 (stereo not drawn) [Example 70, (1-Ethyl-4,5,6,7-tetrahydro-1H-indazol-5-yl)-[8-(5-methoxy-pyridin-3-yl)-[1,2,4]triazolo[1,5-a]pyridine-2-yl]-amine]
	< 40		15/15	2	CCn1ncc2c1CC[C@@H](Nc1nc3c(-c4ccc(F)c(Cl)c4)cccn3n1)C2 [Example R-61, (R)-[8-(3-Chloro-4-fluoro-phenyl)-[1,2,4]triazolo[1,5-a]pyridine-2-yl]-(1-ethyl-4,5,6,7-tetrahydro-1H-indazol-5-yl)-amine]
